Measured values taken from article PMC10724293, “New ruthenium-xanthoxylin complex eliminates colorectal cancer stem cells by targeting the heat shock protein 90 chaperone” (Cell Death & Disease, 2023).

How the values were obtained:
HCT116 cells [1] = test: CRC experimental lung metastasis xenograft model; format: in vivo, C. B-17 SCID mice; conditions: 2 mg/kg i.p. every other day for 4 weeks; control 5.0 ± 0.5
Method: HCT116 cells (2 × 10^6 cells/100 μl) were injected into the tail vein of each mouse. The animals were then treated intraperitoneally (200 μl/animal) every other day for 4 weeks. […] The animals were euthanized with an anesthetic overdose (thiopental, 100 mg/kg) 1 day after treatment ended, and their lungs were excised and fixed in 4% formaldehyde. The number of lung macrometastases per animal was counted and processed for histological analysis.

[2] = test system: HepG2 human hepatocellular carcinoma cells; conditions: HepG2 in monolayers or 3D multicellular cancer spheroids; cited from earlier work
[3] = test system: CR01 (colorectal carcinoma); test: Alamar blue viability of primary cancer cells; format: cell-based, human; conditions: primary CRC (first listed); 25 μg/ml (RXC 31.3 μM, DOX 46 μM); 96 h
Method: (§1) The Alamar blue assay was used to determine cell viability as previously described. Cells were seeded into 96-well plates at a density of 7 × 10^3 cells per well for adherent cells or 3 × 10^4 cells per well for suspended cells. The drug was added to each well after 24 h of incubation for adherent cells or immediately for suspended cells and incubated for an additional 72 h. […] Each well received 100 µM resazurin (Sigma-Aldrich Co. St. Louis, MO, United States) four (for cell lines) or 24 (for primary culture) h before the end of the incubation. A SpectraMax 190 Microplate Reader (Molecular Devices, Sunnyvale, CA, USA) was used to measure absorbance at 570 and 600 nm.
(§2) CR03 (metastatic cholangiocarcinoma) CR04 (malignant papillary mesothelioma) […]
(§3) Figure S1. […] Cells were exposed to 25 […]
(§4) measured after 96 h using the Alamar blue assay. The data are presented as the […]
(§5) mean ± S.E.M. of four replicates. * P < 0.05 compared to CTL by one-way ANOVA […]
(§6) followed by Dunnett's multiple comparisons test. […]

[4] = test system: CR04 (malignant papillary mesothelioma); test: Alamar blue viability of primary cancer cells; format: cell-based, human; conditions: primary papilliferous malignant mesothelioma; 25 μg/ml (RXC 31.3 μM, DOX 46 μM); 96 h
Method: as §1, §2, §3, §4, §5, §6

[5] = test system: CR03 (metastatic cholangiocarcinoma); test: Alamar blue viability of primary cancer cells; format: cell-based, human; conditions: 25 μg/ml (RXC 31.3 μM, DOX 46 μM), 96 h
Method: as §1, §2, §3, §4, §5, §6

BAD KO SV40 MEF = test: Alamar blue survival curves and cell death; format: cell-based, mouse; conditions: BAD KO SV40 MEF vs WT SV40 MEF; 10 μM, 48 h
Method: as §1
For apoptosis detection or functional assays, cell viability was quantified using annexin V-FITC/PI (FITC Annexin V Apoptosis Detection Kit I, BD Biosciences, San Jose, CA, USA) or YO-PRO-1/PI (Sigma-Aldrich Co.). The following inhibitors were used: chloroquine (autophagy inhibitor, Ipca Laboratories, Mumbai, MH, India); 3-methyladenine (autophagy inhibitor, Sigma-Aldrich Co.); and lithium chloride (Wnt activator, Sigma-Aldrich Co.).

HL-60 = test: Alamar blue cytotoxicity assay; format: cell-based, human; conditions: 72 h, read-out: IC50 and 95%CI
Method: as §1

U-87 MG = test: Alamar blue cytotoxicity assay; format: cell-based, human; conditions: 72 h, read-out: IC50 and 95%CI
Method: as §1

SCC-25 = test: Alamar blue cytotoxicity assay; format: cell-based, human; conditions: 72 h, read-out: IC50 and 95%CI
Method: as §1

KG-1a = test: Alamar blue cytotoxicity assay; format: cell-based, human; conditions: 72 h, read-out: IC50 and 95%CI
Method: as §1

DU 145 = test: Alamar blue cytotoxicity assay; format: cell-based, human; conditions: 72 h, read-out: IC50 and 95%CI
Method: as §1

A-375 = test: Alamar blue cytotoxicity assay; format: cell-based, human; conditions: 72 h, read-out: IC50 and 95%CI
Method: as §1

NB4 = test: Alamar blue cytotoxicity assay; format: cell-based, human; conditions: 72 h, read-out: IC50 and 95%CI
Method: as §1

OVCAR-3 = test: Alamar blue cytotoxicity assay; format: cell-based, human; conditions: 72 h, read-out: IC50 and 95%CI
Method: as §1

SCC-9 = test: Alamar blue cytotoxicity assay; format: cell-based, human; conditions: 72 h, read-out: IC50 and 95%CI
Method: as §1

MDA-MB-231 = test: Alamar blue cytotoxicity assay; format: cell-based, human; conditions: 72 h, read-out: IC50 and 95%CI
Method: as §1

SCC4 = test: Alamar blue cytotoxicity assay; format: cell-based, human; conditions: 72 h, read-out: IC50 and 95%CI
Method: as §1

A549 = test: Alamar blue cytotoxicity assay; format: cell-based, human; conditions: 72 h, read-out: IC50 and 95%CI
Method: as §1

PANC-1 = test: Alamar blue cytotoxicity assay; format: cell-based, human; conditions: 72 h, read-out: IC50 and 95%CI
Method: as §1

JUKART = test: Alamar blue cytotoxicity assay; format: cell-based, human; conditions: 72 h, read-out: IC50 and 95%CI
Method: as §1

MCF-7 = test: Alamar blue cytotoxicity assay; format: cell-based, human; conditions: 72 h, read-out: IC50 and 95%CI
Method: as §1

HepG2 = test: Alamar blue cytotoxicity assay; format: cell-based, human; conditions: 72 h, read-out: IC50 and 95%CI
Method: as §1

H1299 = test: Alamar blue cytotoxicity assay; format: cell-based, human; conditions: 72 h, read-out: IC50 and 95%CI
Method: as §1

HCT116 = test: Alamar blue cytotoxicity assay; format: cell-based, human; conditions: 72 h, read-out: IC50 and 95%CI
Method: as §1

HSC-3 = test: Alamar blue cytotoxicity assay; format: cell-based, human; conditions: 72 h, read-out: IC50 and 95%CI
Method: as §1

CAL 27 = test: Alamar blue cytotoxicity assay; format: cell-based, human; conditions: 72 h, read-out: IC50 and 95%CI
Method: as §1

THP-1 = test: Alamar blue cytotoxicity assay; format: cell-based, human; conditions: 72 h, read-out: IC50 and 95%CI
Method: as §1

K-562 = test: Alamar blue cytotoxicity assay; format: cell-based, human; conditions: 72 h, read-out: IC50 and 95%CI
Method: as §1

B16-F10 = test: Alamar blue cytotoxicity assay; format: cell-based, mouse; conditions: 72 h, read-out: IC50 and 95%CI
Method: as §1

4T1 = test: Alamar blue cytotoxicity assay; format: cell-based, mouse; conditions: 72 h, read-out: IC50 and 95%CI
Method: as §1

HCT116 cells [6] = test: CRC tumor growth xenograft model; format: in vivo, C. B-17 SCID mice; conditions: 2 mg/kg i.p. once a day for 2 weeks; control 0.81 ± 0.09 g
Method: HCT116 cells (10^7 cells/500 μl) were inoculated subcutaneously into the left front armpit of mice, as previously reported. The animals were then treated intraperitoneally (200 μl/animal) once a day for 2 weeks. […] The animals were euthanized with an anesthetic overdose (thiopental, 100 mg/kg) 1 day after treatment ended, and tumors were excised, weighed, and processed for histological analysis. The inhibition ratio (percent) was calculated as follows: inhibition ratio (percent) = [(A − B)/A] × 100, where A is the average tumor weight of the negative control and B is the treated group.

Substance: cis-[Ru(phen)2(xant)](PF6) [RXC]
- mean number of pulmonary metastatic nodules (HCT116 cells [1]): 1.3 ± 0.4
- cytotoxicity [2]: potent cytotoxicity
- reduced cell viability [3]: 79.8%
- reduced cell viability [4]: 79.6%
- reduced cell viability [5]: 79.2%
- role of the proapoptotic protein BAD in induced cell death (BAD KO SV40 MEF): BAD-independent cell death
- IC50 (HL-60): 3.2 µM
- IC50 (U-87 MG): 7.03 µM
- IC50 (SCC-25): 10.2 µM
- IC50 (KG-1a): 2.31 µM
- IC50 (DU 145): 4.17 µM
- IC50 (A-375): 3.46 µM
- IC50 (NB4): 3.38 µM
- IC50 (OVCAR-3): 1.47 µM
- IC50 (SCC-9): 2.81 µM
- IC50 (MDA-MB-231): 2.36 µM
- IC50 (SCC4): 1.89 µM
- IC50 (A549): 7.03 µM
- IC50 (PANC-1): 11.8 µM
- IC50 (JUKART): 4.08 µM
- IC50 (MCF-7): 9.55 µM
- IC50 (HepG2): 6.28 µM
- IC50 (H1299): 10.9 µM
- IC50 (HCT116): 6.5 µM
- IC50 (HSC-3): 4.84 µM
- IC50 (CAL 27): 5.4 µM
- IC50 (THP-1): 2.8 µM
- IC50 (K-562): 3.88 µM
- IC50 (B16-F10): 2.58 µM
- IC50 (4T1): 9.1 µM
- mean weight of tumors (HCT116 cells [6]): 0.6 ± 0.05 g
